By Ki is commonly meant the equilibrium dissociation constant of an inhibitor or competing ligand from its target. The low end stands for higher affinity, the high end for lower affinity. Broadly, the Emax is the size of the effect at its maximum, as opposed to the concentration needed.

Results on 23 molecules are retold here after patent publication EP1147083B1, “ARYLPIPERAZINYL-CYCLOHEXYL INDOLE DERIVATIVES FOR THE TREATMENT OF DEPRESSION” (Wyeth, priority 1999, dated 2000).

For experiment [1], the target named is T1, human 5-HT1A receptor subtype (Homo sapiens, UniProt P08908).
T1 construct: expressed in transfected cells
T1 sequence (P08908 1-422): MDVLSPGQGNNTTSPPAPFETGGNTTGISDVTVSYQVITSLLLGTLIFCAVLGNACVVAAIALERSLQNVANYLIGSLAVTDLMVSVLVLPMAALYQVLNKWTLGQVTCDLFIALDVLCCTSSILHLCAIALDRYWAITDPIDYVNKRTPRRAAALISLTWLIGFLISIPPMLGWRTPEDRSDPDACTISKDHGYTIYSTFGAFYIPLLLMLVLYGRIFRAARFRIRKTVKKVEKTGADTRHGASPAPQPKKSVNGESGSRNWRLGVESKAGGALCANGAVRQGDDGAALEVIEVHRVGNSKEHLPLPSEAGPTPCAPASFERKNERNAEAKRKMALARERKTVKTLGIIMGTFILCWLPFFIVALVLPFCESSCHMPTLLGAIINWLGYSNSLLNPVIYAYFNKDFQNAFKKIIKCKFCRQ
Nature of the experiment: 5-HT1A receptor binding assay with [3H]8-OH-DPAT on CHO cell membranes. To be noted: [3H]8-OH-DPAT 1.5 nM. The protocol: (§1) The PCR cloning of the human 5-HT1A receptor subtype from a human genomic library has been described previously Chanda et al., Mol. Pharmacol., 43:516 (1993). A stable Chinese hamster ovary cell line expressing the human 5-HT1A receptor subtype (5-HT1A.CHO cells) was employed throughout this study. Cells were maintained in DMEM supplemented with 10% foetal calf serum, non-essential amino acids and penicillin/ streptomycin.
Cells were grown to 95-100% confluency as a monolayer before membranes were harvested for binding studies. Cells were gently scraped from the culture plates, transferred to centrifuge tubes, and washed twice by centrifugation (2000 rpm for 10 min., 4°C) in buffer (50 mM Tris; pH 7.5). The resulting pellets were aliquoted and placed at -80°C. On the day of assay, the cells were thawed on ice, and resuspended in buffer. Studies were conducted using [^3H]8-OH-DPAT as the radioligand. The binding assay was performed in 96 well microtiter plates in a final total volume of 250 µL of buffer. Competition experiments were performed by using 7 concentrations of unlabelled drug and a final ligand concentration of 1.5 nM. Nonspecific binding was determined in the presence of 10 µM 5HT. Saturation analysis was conducted by using [^3H]8-OH-DPAT at concentrations ranging from 0.3-30 nM. Following a 30 minute incubation at room temperature, the reaction was terminated by the addition of ice cold buffer and rapid filtration using a M-96 Brandel Cell Harvester (Gaithersburg, MD) through a GF/B filter presoaked for 30 minutes in 0.5% polyethyleneimine.

The target of experiment [2] is T2, 5-HT1A cloned receptor membrane fragments (Homo sapiens, UniProt P08908).
T2 construct: expressed in transfected cells
T2 sequence (P08908 1-422): T1 sequence (P08908 1-422)
Nature of the experiment: [35S]-GTPγS binding assay. The class given is biochemical. The note with it: read-out: GTPγS (%EMax). The protocol: The [^35S]-GTPγS binding assay was similar to that used by Lazareno and Birdsall, Br. J. Pharmacol. 109:1120 (1993). Briefly, 5-HT1A cloned receptor membrane fragments (as used for 5-HT1A receptor binding assays) were stored at -70°C until needed. When needed, membranes were rapidly thawed, centrifuged at 40,000 x g for 10 minutes and resuspended at 4 °C for 10 minutes in assay buffer (25 mM HEPES, 3 mM MgCl2, 100 mM NaCl, 1 mM EDTA, 10 uM GDP, […], pH 8.0). These membranes were then incubated for 30 minutes at 30°C with [^35S]GTPgS (1 nM) in the presence of vehicle, test compound (one to eight concentrations), or excess 8-OH-DPAT to define maximum agonist response. All reactions are terminated by the addition of ice cold Tris buffer followed by rapid filtration using a Tom Tech® filtration device to separate bound from free [^35S]GTPgS. Agonists produce an increase in the amount of [^35S]GTPgS bound whereas antagonists produce no increase in binding. Bound radioactivity was counted and analyzed as above.
Background: Binding of GTPγS marks nucleotide exchange on a G protein.

The target in experiment [3] is T3, human 5-HT1A receptor subtype (5-HT1A.CHO cells) (Homo sapiens, UniProt P08908).
T3 construct: expressed in transfected cells
T3 sequence (P08908 1-422): T1 sequence (P08908 1-422)
The experiment in a line: cAMP formation in forskolin-treated cells (cAMP SPA assay). Format: cell-based. To be noted: value in brackets; forskolin 1 uM. The protocol:
as §1
The following assays were performed by incubating the cells with DMEM containing 25 mM HEPES, 5 mM theophylline and 10 µM pargyline for a period of 20 minutes at 37°C. Functional activity was assessed by treating the cells with forskolin (1 uM final concentration) followed immediately by test compound (6 concentrations) for an additional 10 minutes at 37°C. In separate experiments, 6 concentrations of antagonist were preincubated for 20 minutes prior to the addition of 10 nM 8-OH-DPAT and forskolin. The reaction was terminated by removal of the media and addition of 0.5 ml ice cold assay buffer. Plates were stored at -20°C prior to assessment of cAMP formation by a cAMP SPA assay (Amersham).

Setting [4] is: value in brackets, or a lone % in the cell, maximum agonist response defined by excess 8-OH-DPAT.

Where two headings read alike, the source gives them in different places.

The molecule `Fc1cccc2[nH]cc([C@H]3CC[C@@H](N4CCN(c5cccc6[nH]ccc56)CC4)CC3)c12` [Example 2a, 4-Fluoro-3-[cis-4-[4-(1H-indol-4-yl)-1-piperazinyl]cyclohexyl]-1H-indole] came in with a Ki in experiment [1] of 117 nM.
Regarding `N#Cc1ccc2[nH]cc([C@H]3CC[C@@H](N4CCN(c5cccc6cccnc56)CC4)CC3)c2c1` [Example 29a, 3-[(1,4-cis)-4-(4-Quinolin-8-yl-piperazin-1-yl)-cyclohexyl] -1H-indole-5-carbonitrile], the Emax in experiment [2] is 23%.
Take `COc1ccc2[nH]cc([C@H]3CC[C@@H](N4CCN(c5cccc6[nH]ccc56)CC4)CC3)c2c1` [Example 8a, 5-Methoxy-3-[cis-4-[4-(1H-indol-4-yl)-1-piperazinyl]cyclohexyl]-1H-indole]: the affinity in experiment [1], expressed as Ki, was 60.3 nM. Besides, the Emax in experiment [2] (setting [4]) and in experiment [3] was 0% each time.
Regarding `Fc1ccc2[nH]cc([C@H]3CC[C@@H](N4CCN(c5cccc6cccnc56)CC4)CC3)c2c1` [Example 27a, 8-{4-[(1,4-cis)-4-(5-Fluoro-1H-indol-3-yl)-cyclohexyl] -piperazin-1-yl}-quinoline], the Emax was 20% in experiment [2] and 0% in experiment [3].
Take `Fc1ccc2[nH]cc([C@H]3CC[C@H](N4CCN(c5cccc6c5OCCO6)CC4)CC3)c2c1` [Example 24b, 3-{(1,4-trans)-4-[4-(2,3-Dihydro-benzo[1,4]dioxin-5-yl)-piperazin-1-yl]-cyclohexyl}-5-fluoro-1H-indole]: the Emax in experiment [2] is 73%.
Still for that read-out and setting: for `Fc1ccc2c(c1)[nH]cc2[C@H]1CC[C@@H](N2CCN(c3cccc4c3OCCO4)CC2)CC1` [Example 25a, 3-{(1,4-cis)-4-[4-(2,3-Dihydro-benzo[1,4]dioxin-5-yl)-piperazin-1-yl]-cyclohexyl}-6-fluoro-1H-indole] the value was 9%; for `Fc1ccc2[nH]cc([C@H]3CC[C@@H](N4CCN(c5cccc6c5OCCO6)CC4)CC3)c2c1` [Example 24a, 3-{(1,4-cis)-4-[4-(2,3-Dihydro-benzo[1,4]dioxin-5-yl)-piperazin-1-yl]-cyclohexyl}-5-fluoro-1H-indole], 15.4%.
Consider `c1cc(N2CCN([C@H]3CC[C@@H](c4c[nH]c5ccccc54)CC3)CC2)c2cc[nH]c2c1` [Example 1a, 3-[cis-4-[4-(1H-Indol-4-yl)-1-piperazinyl]cyclohexyl]-1H-indole], for which the Ki in experiment [1] was determined as 32 nM. Further, the Emax in experiment [2] (setting [4]) and in experiment [3] was 0% each time.
In turn, `c1cc(N2CCN([C@H]3CC[C@@H](c4c[nH]c5ncccc54)CC3)CC2)c2cc[nH]c2c1` [Example 10a, 3-{(1,4-cis)-4-[4-(1H-Indole-4-yl)-piperazin-1-yl]-cyclohexyl}-1H-pyrrolo[2,3-b]pyridine] displayed an Emax in experiment [3] of 0%.
`Fc1ccc2[nH]cc([C@H]3CC[C@@H](N4CCN(c5cccc6[nH]ccc56)CC4)CC3)c2c1` [Example 3a, 5-Fluoro-3-[cis-4-[4-(1H-indot-4-yl)-1-piperazinyl]cyclohexyl]-1H-indole] gave a Ki in experiment [1] of 36.7 nM. Also, the Emax in experiment [2] stood at 10%; in experiment [3] it was 0%.
In experiment [1], `Fc1ccc2c(c1)[nH]cc2[C@H]1CC[C@H](N2CCN(c3cccc4[nH]ccc34)CC2)CC1` [Example 4b, 6-Fluoro-3-[trans-4-[4-(1H-indol-4-yl)-1-piperazinyl]cyclohexyl]-1H-indole] had an inhibition constant (Ki) of 5.45 nM. This molecule had an Emax in experiment [3] of 7.5%.
In experiment [1], `Cc1[nH]c2ccccc2c1[C@H]1CC[C@@H](N2CCN(c3cccc4[nH]ccc34)CC2)CC1` [Example 9a, 3-[cis-4-[4-(1H-Indol-4-yl)-1-piperazinyl]cyclohexyl] -2-methyl-1H-indole] showed a Ki of 87.1 nM.
As to `Clc1ccc2[nH]cc([C@H]3CC[C@H](N4CCN(c5cccc6[nH]ccc56)CC4)CC3)c2c1` [Example 6b, 5-Chloro-3-[trans-4-[4-(1H-indol-4-yl)-1-piperazinyl]cyclohexyl]-1H-indole], the Ki in experiment [1] is 58.3 nM.
Consider `N#Cc1ccc2[nH]cc([C@H]3CC[C@@H](N4CCN(c5cccc6[nH]ccc56)CC4)CC3)c2c1` [Example 7a, 3-{4-[(1,4-cis)-4-(1H-indol-4-yl)-piperazinyl-1-yl]cyclohexyl} -1H-indole-5-carbonitrile], for which the Emax in experiment [3] was 0%.
Regarding `COc1cc(N2CCN([C@H]3CC[C@@H](c4c[nH]c5ccc(C#N)cc54)CC3)CC2)c2ncccc2c1` [Example 44c, 3-{(1,4-cis)-4-[4-(6-Methoxy-quinolin-8-yl)-piperazin-1-yl]-cyclohexyl}-1H-indole-5-carbonitrile], the Emax in experiment [2] (setting [4]) and in experiment [3] was 0% in each case.
As to `Cn1cc([C@H]2CC[C@@H](N3CCN(c4cccc5cccnc45)CC3)CC2)c2cc(F)ccc21` [Example 28, 8-{4-(1,4-cis)-4-[4-(5-Fluoro-1-methyl-1H-indol-3-yl)-cyclohexyl] -piperazin-1-yl}-quinoline], the Emax in experiment [2] and in experiment [3] was 0% throughout.
For the molecule `c1cc(N2CCN([C@H]3CC[C@H](c4c[nH]c5ccccc54)CC3)CC2)c2cc[nH]c2c1` [Example 1b, 3-[trans-4-[4-(1H-indol-4-yl)-1-piperazinyl]cyclohexyl]-1H-indole], the affinity in experiment [1] corresponds to a Ki of 5.29 nM. Also, the values for the Emax in experiment [2] (setting [4]) and in experiment [3] were 32% and 77%, respectively.
`Cc1[nH]c2ccccc2c1[C@H]1CC[C@H](N2CCN(c3cccc4[nH]ccc34)CC2)CC1` [Example 9b, 3-[trans-4-[4-(1H-Indol-4-yl)-1-piperazinyl]cyclohexyl] -2-methyl-1H-indole] registered a Ki in experiment [1] of 13 nM.
Molecule `Fc1ccc2[nH]cc([C@H]3CC[C@H](N4CCN(c5cccc6[nH]ccc56)CC4)CC3)c2c1` [Example 3b, 5-Fluoro-3-[trans-4-[4-(1H-indol-4-yl)-1-piperazinyl]cyclohexyl]-1H-indole] showed a Ki in experiment [1] of 4.62 nM. In addition, the maximal effect (Emax) in experiment [2] was determined as 51%; in experiment [3], 0%.
As for `Fc1ccc2[nH]cc([C@H]3CC[C@H](N4CCN(c5cccc6cccnc56)CC4)CC3)c2c1` [Example 27b, 8-{4-[(1,4-trans)-4-(5-Fluoro-1H-indol-3-yl)-cyclohexyl] -piperazin-1-yl}-quinoline], the maximal response (Emax) in experiment [2] was determined as 66%.
On to `Fc1cccc2[nH]cc([C@H]3CC[C@H](N4CCN(c5cccc6[nH]ccc56)CC4)CC3)c12` [Example 2b, 4-Fluoro-3-[trans-4-[4-(1H-indol-4-yl)-1-piperazinyl]cyclohexyl]-1H-indole], for which the Ki in experiment [1] was 22.3 nM.
For the molecule `COc1ccc2[nH]cc([C@H]3CC[C@H](N4CCN(c5cccc6[nH]ccc56)CC4)CC3)c2c1` [Example 8b, 5-Methoxy-3-[trans-4-[4-(1H-indol-4-yl)-1-piperazinyl]cyclohexyl]-1H-indole], in experiment [1], the affinity corresponds to a Ki of 2.87 nM. The results for the Emax in experiment [2] (setting [4]) and in experiment [3] were 32% and 77%, respectively.
Turning to `Fc1ccc2c(c1)[nH]cc2[C@H]1CC[C@@H](N2CCN(c3cccc4[nH]ccc34)CC2)CC1` [Example 4a, 6-Fluoro-3-[cis-4-[4-(1H-indol-4-yl)-1-piperazinyl]cyclohexyl]-1H-indole], the Ki in experiment [1] was 33.5 nM. Also, the Emax in experiment [2] (setting [4]) and in experiment [3] was 0% in each case.
